# Patent US20160082130A1, “Dosage Forms and Methods for Diagnosing Sympathetic Nervous System Dysfunction” (priority 2014, published 2016)
# Experiments:
# [1] = system: patients with a diagnosis of GBS; assay: apraclonidine 0.05% eye drop test in patients with Guillain-Barré syndrome (digital photographs, Image-J); format: in vivo, human
# Source text: (§1) Patients with a diagnosis of GBS based on history and clinical exam were recruited for this study. Patients with diabetes were excluded from the study. Patients on medications or eye drops with either sympathetic or parasympathetic action were also excluded from the study. […] All patients had electrophysiological studies done in terms of nerve conduction studies at the time of their diagnosis. Patients on opioid therapy were not excluded. In total, five patients met the criteria for inclusion. Healthy control participants were recruited in outpatient clinics from partners and family members accompanying a person with an appointment. Participants with diabetes, ocular disease, previous ocular surgeries, and on sympathetic or parasympathetic medications or eye drops were also excluded from the study. Digital photographs of the subjects' eyes were obtained prior to the application of apraclonidine. A small pre-measured reference was used at the time of photography to help quantify measurements. Apraclonidine (0.05% drop) was added to the left eye and a follow up photograph was obtained some time (19-52 min) after the application of the drop. The digital photographs were analyzed with Image-J software (Schneider, C. A., et al., Nat. Methods 9:671-675, 2012) to determine pupillary diameter and palpebral fissure heights. Standard deviation of the measurements for error propagation was determined by repeated computer measurement of the pre-measured reference in a digital photograph. Palpebral fissure height was determined by measuring the vertical distance between the eyelids with the measurement going through the centre of each pupil. Pupillary diameter was determined with two measurements (horizontal and vertical) and an average denoted as OS or OD used for each pupil for further calculations. Pupillary response was quantified with the percentage ratio (D2−D1)/D1×100, where D1 and D2 represent the baseline anisocoria (D1=OS−OD) and the drug-induced anisocoria (D2=OS*−OD*) respectively.
# healthy subjects = assay: apraclonidine 0.05% eye drop test in healthy control subjects (digital photographs, Image-J); format: in vivo, human
# Source text: as §1
structure (smiles),measurement,setting,value
"Nc1cc(Cl)c(NC2=NCCN2)c(Cl)c1 [apraclonidine, 2,6-dichloro-N-(4,5-dihydro-1H-imidazol-2-yl)benzene-1,4-diamine]",amplification of palpebral fissure height difference after application,"[1]; GBS patients with only ptosis, computer analysis of digital photographs",1130% (±80%)
same,amplification of anisocoria after administration,"[1]; GBS patients with pupillary dysfunction, (D2-D1)/D1x100",1124% (±324%)
same,unmasking of bilateral ptosis,"[1]; five GBS patients, 0.05% drop to left eye, photograph 19-52 min after",unmasked bilateral ptosis in all five GBS patients
same,unmasking of bilateral Horner's syndrome with dilation of miotic pupil,"[1]; five GBS patients, 0.05% drop to one eye",unmasked bilateral Horner's syndrome with dilation of miotic pupil in two of the five patients
same,unmasking of reverse ptosis of the lower eyelid,[1]; photographic evidence from the subjects in this study,unmasks a reverse ptosis of the lower eyelid
same,effect on pupillary diameter,"healthy subjects; healthy subjects, 0.05% drop to one eye",no significant effect
same,effect on the pupils,"healthy subjects; healthy subjects, analysis of digital photographs",either no effect or caused paradoxical miosis of the pupil
same,effect on palpebral fissure height,"healthy subjects; normal individuals, 0.05% drop to one eye",did not have any significant effect
